Laboratory results: ChEMBL document CHEMBL5260811, “Drug development against tuberculosis: Impact of alkaloids” (Eur J Med Chem, 2017)

How the values were obtained:
[1] = test system: Mycobacterium tuberculosis variant bovis; assay: Antimycobacterial activity against Mycobacterium bovis; format: functional
[2] = test system: Mycobacterium tuberculosis variant bovis; assay: Antimycobacterial activity against Mycobacterium bovis BCG; format: functional

Row | Compound | IC [1] [µg/mL] | IC [2] [µg/mL]
1 | C1=C\CCCCN2C[C@H]3CCCC/C=C\CCCCN4CC[C@@H]([C@H](CCCCCC/1)C4)[C@H](C3)C2 | 2.5 | 
2 | C1=C\CCCC[C@@H]2CN3CCCC/C=C\CCCC[C@H]4C[C@H](CN(CCCCCC/1)C4)[C@H]2CC3 | 1 | 
3 | C(=N\Nc1nncs1)/c1c[nH]c2ccccc12 |  | 7.81
4 | OC1CCCC/C=C\CCCC[C@@H]2CN3CCCC/C=C\CCCC[C@H]4C[C@H](CN(C1)C4)[C@H]2CC3 (some centres undefined) | 12.5 | 
